# Source: PMC5538626, “Structural and functional analysis of the GABARAP interaction motif (GIM)” (EMBO Reports, 2017)
# Ends that are not written are not given here.
# Target: T1, LC3B K30R (Homo sapiens, UniProt Q9GZQ8, K30R)
# T1 construct: modified Ub-leader (ubiquitin fusion leader) (N); made in house; host or cells: E. coli NEB T7 Express
# Test: ITC titration of PLEKHM1-LIR peptide into LC3B K30R mutant
# Assay type: binding
# Protocol: The chimeric constructs were expressed as a His‐tag fusion protein in E. coli BL21(DE3) cells. The cells were induced with 0.3 mM IPTG at OD600 0.6 for 16 h at 26°C. The cell pellets were lysed using mechanical sonication in lysis buffer (20 mM Tris–HCl pH 9.0, 100 mM NaCl, 10 mM imidazole, supplemented with 0.1% Triton X‐100). The proteins were purified using Ni‐NTA beads (GE Healthcare) and the His‐tag was cleaved using thrombin (Invitrogen) at room temperature for 16 h. The last step was gel filtration chromatography using a Superdex S200/300 GL column (GE Healthcare). The proteins were concentrated using spin concentrators (Vivaspin). For ITC and NMR studies, the non‐labelled and stable isotopes labelled LC3 and GABARAP proteins were obtained based on the protocols described elsewhere 30, 39. Here, E. coli NEB T7 Express culture transformed with corresponding plasmids were grown till OD600 nm = 1.0 and protein expression was induced with 0.2 mM IPTG. The cultures were incubated at 25°C for 8–12 h before cell harvesting. Isolation and purification procedures were similar to those reported in Ref. 22, 40. Before experiments, all proteins and peptides were equilibrated with a buffer containing 50 mM Na2HPO4, 100 mM NaCl at pH 7.0, and supplied with 5 mM protease inhibitor cocktail.
# The protocol for preparation of non‐labelled and ^13C,^15N‐labelled PLEKHM1‐LIR peptide was slightly modified to achieve highest yield of the peptide. The 50 ml M9 culture was inoculated with NEB T7 cell transformed with pET39_Ub63‐PLEKHM1‐LIR plasmid and grown overnight at 37°. The collected cells were resuspended in 2 l of either LB or M9 media contained 1.5 g ^15N‐labelled NH4Cl and 3.0 g of ^13C‐labelled glucose. The cultures were grown at 37° till A(600 nm) = 0.9 and supplied with 1 mM of IPTG to induce Ub63‐PLEKHM1‐LIR overexpression (3 h at 37°). After that cells were harvested by centrifugation, re‐suspended in buffer contained 50 mM Tris–HCl pH = 7.9, 200 mM NaCl, 5% glycerol, 0.1 mg/ml DNase A and 4 mM protease inhibitor cocktail. After cell lysis by French press, debris was removed by centrifugation and clear supernatant was applied onto the column contained Ni‐NTA Sepharose equilibrated with the loading buffer (50 mM Tris–HCl pH = 7.9, 250 mM NaCl, 1% glycerol and 20 mM imidazole). Elution was performed with 400 mM imidazole in the same buffer. An aliquot of pure Ub63‐PLEKHM1‐LIR fractions was further purified by gel filtration on Superdex75 26 × 60 column for control ITC and analytical size exclusion chromatography experiments, remaining fusion protein was processed with the TEV‐protease and PLEKHM1‐LIR peptide was purified to 95% purity by reverse Ni‐NTA chromatography and followed gel filtration on Superdex75 26 × 60 column. Peak maximum of peptide was detected at […] (void volume 115 ml). Pure peptide was concentrated in Amicon concentrators with cut‐off of 3 kDa (> 95% retention).
# All titration experiments were performed at 25°C using a VP‐ITC microcalorimeter (Malvern Instruments Ltd, UK). The ITC data were analysed with the ITC‐Origin 7.0 software with a “one‐site” binding model. The peptides at concentrations of 0.4 mM were titrated into 0.020 mM LC3 and GABARAP proteins in 26 steps. The protein and peptide concentrations were calculated from the UV absorption at 280 nm by NanoDrop spectrophotometer (Thermo Fisher Scientific, DE, USA).
sequence,measurement,setting,value
GAMGPQQEDEWVNVQYPD [PLEKHM1‐LIR WT],-T*DS,"25°C, pH 7.0, LC3B K30R",-1.08 kcal/mol
same,DG (ΔG),"25°C, pH 7.0, LC3B K30R",-7.20 kcal/mol
same,DH (ΔH),"25°C, pH 7.0, LC3B K30R",-6.1 ± 0.2 kcal/mol
same,DS (ΔS),"25°C, pH 7.0, LC3B K30R",+3.61 cal mol-1 K-1
same,KA,"25°C, pH 7.0, LC3B K30R",0.19±0.01 *10^6 M-1
same,N,"25°C, pH 7.0, LC3B K30R",1.11±0.02
same,increase in favorable binding enthalpy vs wild type LC3B,within experimental error,0.3 kcal/mol
